Laboratory results reported in US4668677A, “4-phenylphthalazine derivatives, their preparation and their use as pharmaceuticals” (Mitsubishi Chemical Industries Limited, priority 1984, dated 1987).
Like-named read-outs stand apart in the source and are kept apart here.

Tests used:
Thoracic aorta = experiment: Calcium antagonistic activity (relaxation of thoracic aorta); assay type: cell-based, rat (male Wistar strain); details: Rattus norvegicus, 10 mM CaCl2
Procedure: Thoracic aorta was removed from male Wistar strain rats with a body weight of 350 g to 450 g and then spiral-shaped pieces of aorta were prepared therefrom. […] Thereafter, samples were further stabilized in Krebs-Henseleit solution containing no CaCl2 over 1 hour and then in a 80 mM KCl nutritive liquid wherein NaCl was exchanged with an equimolar KCl (depolarized liquid) over a further one hour. Then, samples were washed with the depolarized liquid and loaded with a static tension of 1.0 g. When CaCl2 was added to the nutritive liquid so as to reach a final concentration of 10 mM, tension was produced in samples and, after 15-20 minutes from the addition of CaCl2, the maximum tension was obtained. At this point, test compounds were applied and relaxing activity of test compounds was evaluated. Tension was determined in equal dimension.
Relaxation rate was calculated according to the following equation: [formula] A: Maximum tension generated B: Generated tension retained after administration of test compound
All test compounds were given in the form of a solution in dimethyl sulfoxide at a dose of 0.1 ml, whereupon a final concentration of dimethyl sulfoxide itself was adjusted to 0.5 V/V %.

cerebral cortex = experiment: Activity to increase topical cerebral blood flow, cerebral cortex (heat clearance method); assay type: in vivo, rabbit (male New Zealand White); details: change in blood flow expressed in terms of voltage
Procedure: (§1) The compound of this invention was dissolved in an aqueous solution containing 1% tartaric acid and 1% dimethylacetamide, while papaverine hydrochloride dissolved in 0.9% physiological saline. These test compounds were intravenously given through a residual polyethylene tube within femoral vein.
(§2) Physiol. Scand., 67, 1 (1966); "Kokyu to Junkan" (in Japanese), 15, 435 (1967); the Journal of the Pharmacological Society of Japan, 71, 709 (1975)]. Simultaneously, blood pressure in femoral artery was also determined. Preparation and administration of test compounds were carried out in the same manner as in the above item (6).

blood platelets [1] = experiment: Activity to inhibit the blood platelet adhesion (glass bead method); assay type: cell-based, rat (male Wistar-ST strain); details: Rattus norvegicus, read-out: Inhibitory rate of blood platelet adhesion
Procedure: As experimental animals, there were used male Wistar-ST strain rats of an average body weight of 250 g.
Blood samples were obained from carotid arteries by means of a cannule and immediately admixed with sodium citrate at a volume ratio of 1/10. The mixture was centrifuged at 200×g over 15 minutes to collect the supernatant (platelet-rich plasma: PRP). The PRP was then centrifuged at 2000×g over 15 minutes and the supernatant was removed to give blood platelet pellet.
To the resultant blood platelet pellet was added a 15 mM tris.HCl buffer solution with EDTA (pH 7.4) to resuspend blood platelets therein and then one applied centrifugation at 2000×g over 15 minutes and the supernatant was removed. The resultant washed blood platelets were added to a 0.3 mM tris.HCl buffer solution with CaCl2 (pH 7.4) to resuspend blood platelets therein, whereby there was prepared a blood platelet suspension adjusted to five hundred thousand platelets/μl. To 2 ml of the blood platelet suspension were added 2 μl of a methanolic solution of each test compound and incubation was effected for 15 minutes. Then blood platelet adhesion was determined according to a glass bead method by using a timing blood suction apparatus for determining the blood platelet adhesion.
The number of blood platelets was counted by means of a blood platelet counter.
Inhibitory rate of blood platelet adhesion was calculated according to the following equation: [formula] A: Blood platelet number in the blood platelet suspension passed through a control column
B: Blood platelet number in the blood platelet suspension passed through a bead-packing column

femoral artery [2] = experiment: Blood pressure in femoral artery, topical cerebral blood flow test; assay type: in vivo, rabbit (male New Zealand White)
Procedure: as §1, §2

coronary artery = experiment: Activity to increase blood flow volume in coronary artery; assay type: in vivo, dog (mongrel adult dog)
Procedure: as §1
(§3) A mongrel adult dog was anesthetized with pentobarbital sodium and then underwent thoracotomy under artificial respiration. After cardiac membrane was removed, the origin of branches in left coronary artery was removed from its peripheral tissues and blood flow volume of coronary artery was measured via the probe for determining blood flow which was attached to said origin. Simultaneously, blood pressure in femoral artery was measured. Preparation and administration of test compounds were carried out in the same manner as in the above item (6).

blood platelets [3] = experiment: Activity to inhibit the aggregation of blood platelets (collagen, ex vivo after oral administration); assay type: in vivo, rat (male Wistar-ST strain); details: Rattus norvegicus, Platelet; for inhibition at 3 mg/kg: 3 mg/Kg oral (Table 5); for inhibition at 30 mg/kg: 30 mg/Kg oral (Table 5)
Procedure: Male Wistar-ST strain rats of an average body weight of 250 g were used, a group consisting of 8 animals. The test compound indicated in the following Table 1 was orally administered to rats in the form of a suspension in a 1% tragacanth aqueous solution at 4 ml/Kg (the test compound 10 mg/Kg).
One hour after the administration, blood samples were obtained from the carotid artery by means of a cannule. […] Tubes were turned upside-down and then subjected to centrifugation at 200×g over 15 minutes to assign the supernatant as a platelet-rich plasma (PRP). The residue was further centrifuged at […] over 15 minutes to assign the supernatant as a platelet-poor plasma (PPP). These supernatants were applied for determining the ability to aggregate blood platelets. […] As an aggregation inducing agent, collagen (availale from Hormon-chemie A.G.) was used at a concentration of 7 to 10 μg/ml.
Inhibitory rate to aggregate blood platelets was calculated according to the following equation: [formula] A: […] in the group to which the 1% tragacanth solution alone was given (Control)
B: Aggregation rate in the group to which the tragacanth solution of the test compound was given.

femoral artery [4] = experiment: Blood pressure in femoral artery, coronary blood flow test; assay type: in vivo, dog (mongrel adult dog)
Procedure: as §1, §3

candate nucleus = experiment: Activity to increase topical cerebral blood flow, candate nucleus (heat clearance method); assay type: in vivo, rabbit (male New Zealand White); details: change in blood flow expressed in terms of voltage
Procedure: as §1, §2

[5] = read-out: Inhibitory rate of blood platelet aggregation
[6] = 10 mg/Kg oral (Table 5), read-out: Inhibitory rate of blood platelet aggregation
[7] = 10 mg/Kg oral, 1 hour after administration, collagen 7 to 10 μg/ml, read-out: Inhibitory rate (blood platelet aggregation)

Structure (SMILES): CC(C)(C)CNc1nnc(-c2ccccc2)c2ccccc12 [Compound 1, 1-neopentylamino-4-phenylphthalazine]
- inhibition at 3 µM (Thoracic aorta; final concentration 3 μM): 8.5%
- inhibition at 10 µM (Thoracic aorta; final concentration 10 μM): 30%
- Increase in topical blood flow volume, Cerebral cortex (cerebral cortex; 0.3 mg/Kg i.v.): 1.03 ± 0.12 Δ μV
- Increase in topical blood flow volume, Cerebral cortex (cerebral cortex; 1 mg/Kg i.v.): 2.05 ± 0.29 Δ μV
- inhibition at 300 µM (blood platelets [1]; 3·10^-4 M): 50.2%
- inhibition at 30 µM (blood platelets [1]; 3·10^-5 M): 40.8%
- inhibition at 3 µM (blood platelets [1]; 3·10^-6 M): 12.5%
- inhibition at 0.3 µM (blood platelets [1]; 3·10^-7 M): 8.2%
- Lowering of blood pressure in femoral artery (femoral artery [2]; 0.3 mg/Kg i.v.): 18.2 ± 0.98%
- Lowering of blood pressure in femoral artery (femoral artery [2]; 1 mg/Kg i.v.): 30.8 ± 3.2%
- Blood flow volume in coronery artery, After administration (coronary artery; 0.1 mg/Kg): 28.8 mL/min
- Blood flow volume in coronery artery, Before administration (coronary artery; 0.1 mg/Kg): 18.8 mL/min
- Blood flow volume in coronery artery, Increase rate (coronary artery; 0.1 mg/Kg): 53.2%
- Blood flow volume in coronery artery, After administration (coronary artery; 0.3 mg/Kg): 37.5 mL/min
- Blood flow volume in coronery artery, Before administration (coronary artery; 0.3 mg/Kg): 18.8 mL/min
- Blood flow volume in coronery artery, Increase rate (coronary artery; 0.3 mg/Kg): 99.5%
- inhibition at 3 mg/kg (blood platelets [3]; [5]): 48.1%
- inhibition at 10 mg/kg (blood platelets [3]; [6]): 100%
- inhibition at 10 mg/kg (blood platelets [3]; [7]): 100%
- inhibition at 30 mg/kg (blood platelets [3]; [5]): 100%
- Lowering of blood pressure in femoral artery (femoral artery [4]; 0.1 mg/Kg): 17.6%
- Lowering of blood pressure in femoral artery (femoral artery [4]; 0.3 mg/Kg): 29.4%
- Increase in topical blood flow volume, Candate nucleus (candate nucleus; 0.3 mg/Kg i.v.): 0.63 ± 0.08 Δ μV
- Increase in topical blood flow volume, Candate nucleus (candate nucleus; 1 mg/Kg i.v.): 0.85 ± 0.25 Δ μV

Structure (SMILES): CCC(CC)Nc1nnc(-c2ccccc2)c2ccccc12 [Compound 2, 1-(1-ethylpropylamino)-4-phenylphthalazine]
- inhibition at 3 mg/kg (blood platelets [3]; [5]): 39%
- inhibition at 10 mg/kg (blood platelets [3]; [6]): 70.1%
- inhibition at 10 mg/kg (blood platelets [3]; [7]): 70.1%
- inhibition at 30 mg/kg (blood platelets [3]; [5]): 85.5%
- inhibition at 100 mg/kg (blood platelets [3]; 100 mg/Kg oral (Table 5), read-out: Inhibitory rate of blood platelet aggregation): 100%
